Data as given in patent US20220323406A1, “METHODS AND COMPOSITIONS FOR DIFFERENTIATING STEM CELLS” (Massachusetts Institute of Technology, priority 2019, published 2022).

Key:
[1] = test system: ENR+CD organoids (ISC to Paneth cell differentiation); test: Primary screen: basal (non-stimulated) lysozyme secretion LYZ.NS, 2.5-D 384-well ENR+CD organoid differentiation; assay type: cell-based, mouse; details: primary screen; for Dose.FC.LYZ.NS: FC relative to plate median; for Z.LYZ.NS: standard z score
From the text: (§1) High-throughput screening.

[2] = test system: ENR+CD organoids (ISC to Paneth cell differentiation); test: Primary screen: CCh-stimulated lysozyme secretion LYZ.S, 2.5-D 384-well ENR+CD organoid differentiation; assay type: cell-based, mouse; details: primary screen, FC relative to plate median
From the text: as §1

[3] = test system: ENR+CD organoids; test: Primary screen: ATP (CellTiter-Glo 3D, CTG) cell number/viability, 2.5-D 384-well ENR+CD organoids; details: primary screen; for Dose.FC.CTG: FC relative to plate median; for Z.CTG: standard z score;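 for all read-outs here: compounds given at plating and again on day 3 over a 6-day differentiation from ENR+CV stem-cell-enriched precursors, ATP measured on day 6, plate median as control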

N#CSc1cc(SC#N)c(N)nc1N [PR-619]
Dose.FC.LYZ.NS ([1]; dose 0.08 uM): 0.100 log2 fold change
Z.LYZ.NS ([1]; dose 0.08 uM): 0.872
Dose.FC.LYZ.NS ([1]; dose 0.40 uM): 0.051 log2 fold change
Z.LYZ.NS ([1]; dose 0.40 uM): 0.448
Dose.FC.LYZ.NS ([1]; dose 2.00 uM): 0.057 log2 fold change
Z.LYZ.NS ([1]; dose 2.00 uM): 0.495
Dose.FC.LYZ.NS ([1]; dose 10.00 uM): −0.194 log2 fold change
Z.LYZ.NS ([1]; dose 10.00 uM): −1.687
Dose.FC.LYZ.S ([2]; dose 0.08 uM): 0.122 log2 fold change
Dose.FC.LYZ.S ([2]; dose 0.40 uM): 0.047 log2 fold change
Dose.FC.LYZ.S ([2]; dose 2.00 uM): 0.081 log2 fold change
Dose.FC.LYZ.S ([2]; dose 10.00 uM): −0.193 log2 fold change
Dose.FC.CTG ([3]; dose 0.08 uM): 0.054 log2 fold change
Z.CTG ([3]; dose 0.08 uM): 0.130
Dose.FC.CTG ([3]; dose 0.40 uM): 0.111 log2 fold change
Z.CTG ([3]; dose 0.40 uM): 0.266
Dose.FC.CTG ([3]; dose 2.00 uM): 0.022 log2 fold change
Z.CTG ([3]; dose 2.00 uM): 0.053
Dose.FC.CTG ([3]; dose 10.00 uM): −0.320 log2 fold change
Z.CTG ([3]; dose 10.00 uM): −0.764

Cl.NC(=O)c1cnc(N[C@@H]2CCCC[C@@H]2N)nc1Nc1cccc(-n2nccn2)c1 [PRT062607 (P505-15, BIIB057) HCl]
Dose.FC.LYZ.NS ([1]; dose 0.08 uM): 0.004 log2 fold change
Z.LYZ.NS ([1]; dose 0.08 uM): 0.037
Dose.FC.LYZ.NS ([1]; dose 0.40 uM): 0.022 log2 fold change
Z.LYZ.NS ([1]; dose 0.40 uM): 0.194
Dose.FC.LYZ.NS ([1]; dose 2.00 uM): −0.032 log2 fold change
Z.LYZ.NS ([1]; dose 2.00 uM): −0.280
Dose.FC.LYZ.NS ([1]; dose 10.00 uM): −0.211 log2 fold change
Z.LYZ.NS ([1]; dose 10.00 uM): −1.837
Dose.FC.LYZ.S ([2]; dose 0.08 uM): −0.033 log2 fold change
Dose.FC.LYZ.S ([2]; dose 0.40 uM): 0.122 log2 fold change
Dose.FC.LYZ.S ([2]; dose 2.00 uM): −0.123 log2 fold change
Dose.FC.LYZ.S ([2]; dose 10.00 uM): −0.298 log2 fold change
Dose.FC.CTG ([3]; dose 0.08 uM): −0.092 log2 fold change
Z.CTG ([3]; dose 0.08 uM): −0.219
Dose.FC.CTG ([3]; dose 0.40 uM): 0.080 log2 fold change
Z.CTG ([3]; dose 0.40 uM): 0.191
Dose.FC.CTG ([3]; dose 2.00 uM): −0.075 log2 fold change
Z.CTG ([3]; dose 2.00 uM): −0.179
Dose.FC.CTG ([3]; dose 10.00 uM): −0.330 log2 fold change
Z.CTG ([3]; dose 10.00 uM): −0.788

COc1cc(Br)c(Nc2nc(-c3c(C)nc4ncccn34)cs2)c(Br)c1 [PTC-209]
Dose.FC.LYZ.NS ([1]; dose 0.08 uM): 0.034 log2 fold change
Z.LYZ.NS ([1]; dose 0.08 uM): 0.294
Dose.FC.LYZ.NS ([1]; dose 0.40 uM): −0.058 log2 fold change
Z.LYZ.NS ([1]; dose 0.40 uM): −0.509
Dose.FC.LYZ.NS ([1]; dose 2.00 uM): −0.201 log2 fold change
Z.LYZ.NS ([1]; dose 2.00 uM): −1.753
Dose.FC.LYZ.NS ([1]; dose 10.00 uM): −0.227 log2 fold change
Z.LYZ.NS ([1]; dose 10.00 uM): −1.975
Dose.FC.LYZ.S ([2]; dose 0.08 uM): 0.007 log2 fold change
Dose.FC.LYZ.S ([2]; dose 0.40 uM): 0.045 log2 fold change
Dose.FC.LYZ.S ([2]; dose 2.00 uM): −0.289 log2 fold change
Dose.FC.LYZ.S ([2]; dose 10.00 uM): −0.300 log2 fold change
Dose.FC.CTG ([3]; dose 0.08 uM): −0.108 log2 fold change
Z.CTG ([3]; dose 0.08 uM): −0.259
Dose.FC.CTG ([3]; dose 0.40 uM): −0.207 log2 fold change
Z.CTG ([3]; dose 0.40 uM): −0.495
Dose.FC.CTG ([3]; dose 2.00 uM): −1.422 log2 fold change
Z.CTG ([3]; dose 2.00 uM): −3.397
Dose.FC.CTG ([3]; dose 10.00 uM): −1.553 log2 fold change
Z.CTG ([3]; dose 10.00 uM): −3.708

CCOC(=O)c1ccc(N2NC(=O)/C(=C/c3ccc([N+](=O)[O-])o3)C2=O)cc1 [PYR-41]
Dose.FC.LYZ.NS ([1]; dose 0.08 uM): 0.150 log2 fold change
Z.LYZ.NS ([1]; dose 0.08 uM): 1.305
Dose.FC.LYZ.NS ([1]; dose 0.40 uM): 0.089 log2 fold change
Z.LYZ.NS ([1]; dose 0.40 uM): 0.777
Dose.FC.LYZ.NS ([1]; dose 2.00 uM): 0.065 log2 fold change
Z.LYZ.NS ([1]; dose 2.00 uM): 0.568
Dose.FC.LYZ.NS ([1]; dose 10.00 uM): 0.099 log2 fold change
Z.LYZ.NS ([1]; dose 10.00 uM): 0.861
Dose.FC.LYZ.S ([2]; dose 0.08 uM): 0.193 log2 fold change
Dose.FC.LYZ.S ([2]; dose 0.40 uM): 0.076 log2 fold change
Dose.FC.LYZ.S ([2]; dose 2.00 uM): 0.049 log2 fold change
Dose.FC.LYZ.S ([2]; dose 10.00 uM): 0.129 log2 fold change
Dose.FC.CTG ([3]; dose 0.08 uM): 0.255 log2 fold change
Z.CTG ([3]; dose 0.08 uM): 0.609
Dose.FC.CTG ([3]; dose 0.40 uM): 0.319 log2 fold change
Z.CTG ([3]; dose 0.40 uM): 0.762
Dose.FC.CTG ([3]; dose 2.00 uM): 0.161 log2 fold change
Z.CTG ([3]; dose 2.00 uM): 0.385
Dose.FC.CTG ([3]; dose 10.00 uM): 0.096 log2 fold change
Z.CTG ([3]; dose 10.00 uM): 0.229
